# Results published in US20240327786A1, “NON-MAMMALIAN AQUATIC ANIMAL CELLS AND EXTRACTS” (Shah Caviar Limited, priority 2021, published 2024).
# System: sturgeon suspension cells
# Assay: Proliferation of sturgeon suspension cells treated with epigenetic modifiers (cell counts, Neubauer chamber)
# Conditions: exposed once per week
Structure (SMILES),proliferation compared to the standard culture,"expansion factor (within 6 weeks, 30 μM, 100 μM, 300 μM, 1 mM and 3 mM)","expansion factor (within 4 weeks, 1 μM, 10 μM, 50 μM, 100 μM and 500 μM)"
CCCC(CCC)C(=O)O [valproic acid],increase in proliferation,8,–
CCCC(=O)O [butyric acid],increase in proliferation,–,16
